Measured values reported in the kinase profiling compilation of Christmann-Franck et al. (2016).
Where “and” joins values, the source holds several entries; their conditions need not be identical. Equal values may be shown once.

What was measured:
Assay in all cases: radiometric filter-binding kinase assay, Kinaseprofiler
PIM1 (human) = PIM1 (human) (UniProt P11309); settings: ATP 90 µM
AURKC (human) = AURKC (human) (UniProt Q9UQB9); settings: ATP 15 µM
PRKCZ (human) = PRKCZ (human) (UniProt Q05513); settings: ATP 15 µM
[1] = system: SGK2 (human), Q9HBY8 [S416D]; settings: ATP 15 µM
BMX (human) = BMX (human) (UniProt P51813); settings: ATP 45 µM
MAP2K6 (human) = MAP2K6 (human) (UniProt P52564); settings: ATP 10 µM
FGR (human) = FGR (human) (UniProt P09769); settings: ATP 45 µM
GRK7 (human) = GRK7 (human) (UniProt Q8WTQ7); settings: ATP 15 µM
ZAP70 (human) = ZAP70 (human) (UniProt P43403); settings: ATP 15 µM
CSNK1G2 (human) = CSNK1G2 (human) (UniProt P78368); settings: ATP 10 µM
RPS6KA2 KD1 KD2 (human) = RPS6KA2 KD1 KD2 (human) (UniProt Q15349); settings: ATP 10 µM
MAPK13 (human) = MAPK13 (human) (UniProt O15264); settings: ATP 15 µM
[2] = target: PRKAA2 PRKAB1 PRKAG1 (human) (UniProt P54619+P54646+Q9Y478); settings: ATP 45 µM
STK4 (human) = STK4 (human) (UniProt Q13043); settings: ATP 90 µM
TAOK1 (human) = TAOK1 (human) (UniProt Q7L7X3); settings: ATP 10 µM
PRKCQ (human) = PRKCQ (human) (UniProt Q04759); settings: ATP 15 µM
PRKCI (human) = PRKCI (human) (UniProt P41743); settings: ATP 155 µM
PRKG1 (human) = PRKG1 (human) (UniProt Q13976); settings: ATP 90 µM
FYN (human) = FYN (human) (UniProt P06241); settings: ATP 70 µM
[3] = system: TEK (human), Q02763 [Q939H/Q940H]; settings: ATP 200 µM
PLK3 (human) = PLK3 (human) (UniProt Q9H4B4); settings: ATP 70 µM
TSSK2 (human) = TSSK2 (human) (UniProt Q96PF2); settings: ATP 15 µM
CHEK1 (human) = CHEK1 (human) (UniProt O14757); settings: ATP 90 µM
MAP2K7 (human) = MAP2K7 (human) (UniProt O14733); settings: ATP 10 µM
EPHA5 (human) = EPHA5 (human) (UniProt P54756); settings: ATP 10 µM
NEK11 (human) = NEK11 (human) (UniProt Q8NG66); settings: ATP 200 µM
CLK3 (human) = CLK3 (human) (UniProt P49761); settings: ATP 90 µM
INSR (human) = INSR (human) (UniProt P06213)
LCK (human) = LCK (human) (UniProt P06239); settings: compound 1.0 µM; ATP 90 µM
PDGFRB (human) = PDGFRB (human) (UniProt P09619); settings: ATP 200 µM
PAK7 (human) = PAK7 (human) (UniProt Q9P286); settings: ATP 15 µM
ABL2 (human) = ABL2 (human) (UniProt P42684); settings: ATP 45 µM
CSF1R (human) = CSF1R (human) (UniProt P07333); settings: ATP 200 µM

INSR (human), sequence (P06213 whole entry, looked up): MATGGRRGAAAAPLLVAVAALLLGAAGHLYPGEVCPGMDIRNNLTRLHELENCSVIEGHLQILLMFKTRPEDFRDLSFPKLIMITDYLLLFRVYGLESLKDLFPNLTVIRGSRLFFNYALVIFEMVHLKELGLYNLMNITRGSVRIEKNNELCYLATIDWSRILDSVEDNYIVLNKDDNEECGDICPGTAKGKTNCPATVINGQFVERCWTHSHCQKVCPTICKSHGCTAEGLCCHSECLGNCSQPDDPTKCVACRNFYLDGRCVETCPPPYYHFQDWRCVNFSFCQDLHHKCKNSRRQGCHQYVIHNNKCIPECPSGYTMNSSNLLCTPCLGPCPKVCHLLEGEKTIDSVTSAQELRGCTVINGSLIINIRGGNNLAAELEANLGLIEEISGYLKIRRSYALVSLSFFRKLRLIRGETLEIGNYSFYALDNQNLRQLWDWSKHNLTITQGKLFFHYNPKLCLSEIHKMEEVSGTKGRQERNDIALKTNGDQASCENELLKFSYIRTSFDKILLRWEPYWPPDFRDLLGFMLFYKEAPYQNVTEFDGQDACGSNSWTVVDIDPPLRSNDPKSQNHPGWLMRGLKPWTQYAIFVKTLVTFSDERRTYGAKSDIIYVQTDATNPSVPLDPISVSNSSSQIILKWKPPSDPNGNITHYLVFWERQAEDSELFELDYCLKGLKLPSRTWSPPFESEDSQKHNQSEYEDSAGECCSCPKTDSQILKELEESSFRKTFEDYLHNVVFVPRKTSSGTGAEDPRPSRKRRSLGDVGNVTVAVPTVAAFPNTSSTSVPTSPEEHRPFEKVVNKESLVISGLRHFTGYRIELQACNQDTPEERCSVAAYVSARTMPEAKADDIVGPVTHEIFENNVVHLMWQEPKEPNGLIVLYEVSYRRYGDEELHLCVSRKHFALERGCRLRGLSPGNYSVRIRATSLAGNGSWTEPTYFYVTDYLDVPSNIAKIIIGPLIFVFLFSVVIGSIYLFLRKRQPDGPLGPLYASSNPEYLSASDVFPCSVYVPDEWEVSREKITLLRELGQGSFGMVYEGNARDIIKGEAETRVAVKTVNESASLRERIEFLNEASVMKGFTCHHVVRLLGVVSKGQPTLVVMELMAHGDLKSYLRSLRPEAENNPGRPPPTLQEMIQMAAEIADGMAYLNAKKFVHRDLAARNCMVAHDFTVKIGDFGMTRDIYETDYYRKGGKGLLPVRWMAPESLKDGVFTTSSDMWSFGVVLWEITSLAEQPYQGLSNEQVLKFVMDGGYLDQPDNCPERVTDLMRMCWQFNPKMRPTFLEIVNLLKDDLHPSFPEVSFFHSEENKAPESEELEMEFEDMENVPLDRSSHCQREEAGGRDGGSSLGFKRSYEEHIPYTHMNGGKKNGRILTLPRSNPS
PRKG1 (human), sequence (Q13976 whole entry, looked up): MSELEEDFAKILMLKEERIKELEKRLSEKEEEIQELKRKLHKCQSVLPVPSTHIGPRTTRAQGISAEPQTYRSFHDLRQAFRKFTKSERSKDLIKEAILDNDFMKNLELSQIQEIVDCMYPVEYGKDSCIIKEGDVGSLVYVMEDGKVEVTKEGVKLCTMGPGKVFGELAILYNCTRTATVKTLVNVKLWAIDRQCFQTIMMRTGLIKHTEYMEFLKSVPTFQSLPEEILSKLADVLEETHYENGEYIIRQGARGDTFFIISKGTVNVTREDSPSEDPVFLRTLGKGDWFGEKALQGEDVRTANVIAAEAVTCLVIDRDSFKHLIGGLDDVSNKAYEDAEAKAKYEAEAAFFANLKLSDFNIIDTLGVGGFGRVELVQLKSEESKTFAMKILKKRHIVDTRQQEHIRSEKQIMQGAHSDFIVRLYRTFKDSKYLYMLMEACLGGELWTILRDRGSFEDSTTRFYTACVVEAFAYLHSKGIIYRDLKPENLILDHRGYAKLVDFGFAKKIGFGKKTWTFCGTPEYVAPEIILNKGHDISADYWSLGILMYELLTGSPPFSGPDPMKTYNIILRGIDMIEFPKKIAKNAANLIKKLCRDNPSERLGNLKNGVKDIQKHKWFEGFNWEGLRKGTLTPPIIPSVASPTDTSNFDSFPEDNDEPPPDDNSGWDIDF
ABL2 (human), sequence (P42684 whole entry, looked up): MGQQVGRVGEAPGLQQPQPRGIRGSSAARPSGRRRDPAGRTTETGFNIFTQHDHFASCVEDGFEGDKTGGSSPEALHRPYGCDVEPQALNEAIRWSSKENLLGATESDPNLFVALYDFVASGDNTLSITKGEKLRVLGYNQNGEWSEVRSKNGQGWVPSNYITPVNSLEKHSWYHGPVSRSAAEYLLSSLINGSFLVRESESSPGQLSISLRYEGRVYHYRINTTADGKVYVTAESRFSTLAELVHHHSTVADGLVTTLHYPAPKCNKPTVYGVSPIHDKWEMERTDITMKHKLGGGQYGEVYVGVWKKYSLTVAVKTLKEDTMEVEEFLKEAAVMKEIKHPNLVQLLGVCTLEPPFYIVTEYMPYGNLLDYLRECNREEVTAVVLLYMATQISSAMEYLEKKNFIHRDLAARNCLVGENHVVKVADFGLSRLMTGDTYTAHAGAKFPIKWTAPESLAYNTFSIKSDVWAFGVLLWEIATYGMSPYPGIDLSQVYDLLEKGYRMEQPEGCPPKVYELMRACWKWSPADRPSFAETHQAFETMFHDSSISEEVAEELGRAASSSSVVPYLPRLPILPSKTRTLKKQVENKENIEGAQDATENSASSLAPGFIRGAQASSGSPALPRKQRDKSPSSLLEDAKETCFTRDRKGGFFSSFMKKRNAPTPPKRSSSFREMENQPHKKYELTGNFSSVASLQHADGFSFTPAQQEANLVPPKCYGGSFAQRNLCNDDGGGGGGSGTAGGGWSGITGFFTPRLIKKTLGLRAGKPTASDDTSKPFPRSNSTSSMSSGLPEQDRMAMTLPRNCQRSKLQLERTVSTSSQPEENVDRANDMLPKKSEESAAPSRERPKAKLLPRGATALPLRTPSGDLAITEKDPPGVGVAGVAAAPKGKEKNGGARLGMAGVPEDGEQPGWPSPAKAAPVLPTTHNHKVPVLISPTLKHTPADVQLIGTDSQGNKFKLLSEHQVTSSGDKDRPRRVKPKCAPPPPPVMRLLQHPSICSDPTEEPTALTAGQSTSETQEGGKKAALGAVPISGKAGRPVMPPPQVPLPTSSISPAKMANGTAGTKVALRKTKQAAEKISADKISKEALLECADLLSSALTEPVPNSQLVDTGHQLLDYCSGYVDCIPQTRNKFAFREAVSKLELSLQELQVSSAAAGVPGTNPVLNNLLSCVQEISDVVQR
LCK (human), sequence (P06239 whole entry, looked up): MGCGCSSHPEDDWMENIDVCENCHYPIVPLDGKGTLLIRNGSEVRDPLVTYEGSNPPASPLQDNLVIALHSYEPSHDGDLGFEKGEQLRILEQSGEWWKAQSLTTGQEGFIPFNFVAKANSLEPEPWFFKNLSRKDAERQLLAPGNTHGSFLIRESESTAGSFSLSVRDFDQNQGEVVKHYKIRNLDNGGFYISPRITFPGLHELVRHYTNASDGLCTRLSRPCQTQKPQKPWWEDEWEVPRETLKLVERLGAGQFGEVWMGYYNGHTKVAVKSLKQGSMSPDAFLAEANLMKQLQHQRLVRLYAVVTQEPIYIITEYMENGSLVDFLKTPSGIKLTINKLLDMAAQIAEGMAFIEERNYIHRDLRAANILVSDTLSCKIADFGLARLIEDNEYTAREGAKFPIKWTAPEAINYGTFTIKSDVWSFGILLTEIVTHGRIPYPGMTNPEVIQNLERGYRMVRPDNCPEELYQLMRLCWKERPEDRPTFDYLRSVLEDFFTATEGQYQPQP
TEK (human), Q02763 [Q939H/Q940H], sequence (Q02763 whole entry Q939H/Q940H, looked up): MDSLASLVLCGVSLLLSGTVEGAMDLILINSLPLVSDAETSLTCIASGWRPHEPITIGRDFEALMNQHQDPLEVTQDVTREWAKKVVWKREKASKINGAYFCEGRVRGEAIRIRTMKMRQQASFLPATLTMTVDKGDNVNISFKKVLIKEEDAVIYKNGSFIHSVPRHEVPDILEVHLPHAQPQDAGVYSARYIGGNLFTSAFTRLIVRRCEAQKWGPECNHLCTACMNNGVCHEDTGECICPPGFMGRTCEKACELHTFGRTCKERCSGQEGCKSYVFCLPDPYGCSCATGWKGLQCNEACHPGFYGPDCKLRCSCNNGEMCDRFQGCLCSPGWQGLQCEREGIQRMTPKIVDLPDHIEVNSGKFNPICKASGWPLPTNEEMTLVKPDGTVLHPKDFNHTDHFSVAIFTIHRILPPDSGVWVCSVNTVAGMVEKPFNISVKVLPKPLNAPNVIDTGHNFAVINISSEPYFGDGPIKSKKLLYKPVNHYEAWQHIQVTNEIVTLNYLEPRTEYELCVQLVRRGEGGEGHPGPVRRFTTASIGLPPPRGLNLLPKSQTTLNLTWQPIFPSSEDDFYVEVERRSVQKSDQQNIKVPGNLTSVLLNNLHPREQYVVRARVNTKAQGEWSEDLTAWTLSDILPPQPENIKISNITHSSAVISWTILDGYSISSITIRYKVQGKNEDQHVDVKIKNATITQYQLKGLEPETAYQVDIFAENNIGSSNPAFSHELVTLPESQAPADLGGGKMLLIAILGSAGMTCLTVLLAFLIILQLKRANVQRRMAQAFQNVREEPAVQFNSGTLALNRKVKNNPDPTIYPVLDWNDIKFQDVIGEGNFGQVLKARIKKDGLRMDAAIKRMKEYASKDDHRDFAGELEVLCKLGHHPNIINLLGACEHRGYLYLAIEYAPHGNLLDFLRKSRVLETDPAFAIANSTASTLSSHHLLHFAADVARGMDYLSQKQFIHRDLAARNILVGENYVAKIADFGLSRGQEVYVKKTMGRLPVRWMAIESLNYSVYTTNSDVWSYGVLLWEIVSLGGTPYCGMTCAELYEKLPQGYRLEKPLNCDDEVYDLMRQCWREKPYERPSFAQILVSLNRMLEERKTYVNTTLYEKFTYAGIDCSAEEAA

O=C1c2ccccc2-c2n[nH]c3cccc1c23
residual activity (PIM1 (human); compound 1.0 µM): 68%
residual activity (PIM1 (human); compound 10.0 µM): 18%
residual activity (AURKC (human); compound 1.0 µM): 9%
residual activity (AURKC (human); compound 10.0 µM): 4%
residual activity (PRKCZ (human); compound 1.0 µM): 110%
residual activity (PRKCZ (human); compound 10.0 µM): 106%
residual activity ([1]; compound 1.0 µM): 71%
residual activity ([1]; compound 10.0 µM): 33%
residual activity (BMX (human); compound 1.0 µM): 59%
residual activity (BMX (human); compound 10.0 µM): 18%
residual activity (MAP2K6 (human); compound 1.0 µM): 82%
residual activity (MAP2K6 (human); compound 10.0 µM): 13%
residual activity (FGR (human); compound 1.0 µM): 75%
residual activity (FGR (human); compound 10.0 µM): 38%
residual activity (GRK7 (human); compound 1.0 µM): 71%
residual activity (GRK7 (human); compound 10.0 µM): 27%
residual activity (ZAP70 (human); compound 1.0 µM): 94%
residual activity (ZAP70 (human); compound 10.0 µM): 98%
residual activity (CSNK1G2 (human); compound 1.0 µM): 70%
residual activity (CSNK1G2 (human); compound 10.0 µM): 6%
residual activity (RPS6KA2 KD1 KD2 (human); compound 1.0 µM): 58%
residual activity (RPS6KA2 KD1 KD2 (human); compound 10.0 µM): 22%
residual activity (MAPK13 (human); compound 1.0 µM): 96%
residual activity (MAPK13 (human); compound 10.0 µM): 73%
residual activity ([2]; compound 1.0 µM): 69%
residual activity ([2]; compound 10.0 µM): 28%
residual activity (STK4 (human); compound 1.0 µM): 52%
residual activity (STK4 (human); compound 10.0 µM): 21%
residual activity (TAOK1 (human); compound 1.0 µM): 69%
residual activity (TAOK1 (human); compound 10.0 µM): 25%
residual activity (PRKCQ (human); compound 1.0 µM): 90%
residual activity (PRKCQ (human); compound 10.0 µM): 76%
residual activity (PRKCI (human); compound 1.0 µM): 117%
residual activity (PRKCI (human); compound 10.0 µM): 107%
residual activity (PRKG1 (human); compound 1.0 µM): 90% and 79%
residual activity (PRKG1 (human); compound 10.0 µM): 60% and 79%
residual activity (FYN (human); compound 1.0 µM): 60%
residual activity (FYN (human); compound 10.0 µM): 47%
residual activity ([3]; compound 1.0 µM): 95%
residual activity ([3]; compound 10.0 µM): 63%
residual activity (PLK3 (human); compound 1.0 µM): 94%
residual activity (PLK3 (human); compound 10.0 µM): 82%
residual activity (TSSK2 (human); compound 1.0 µM): 92%
residual activity (TSSK2 (human); compound 10.0 µM): 86%
residual activity (CHEK1 (human); compound 1.0 µM): 72%
residual activity (CHEK1 (human); compound 10.0 µM): 32%
residual activity (MAP2K7 (human); compound 1.0 µM): 58%
residual activity (MAP2K7 (human); compound 10.0 µM): 6%
residual activity (EPHA5 (human); compound 1.0 µM): 115%
residual activity (EPHA5 (human); compound 10.0 µM): 63%
residual activity (NEK11 (human); compound 1.0 µM): 50%
residual activity (NEK11 (human); compound 10.0 µM): 47%
residual activity (CLK3 (human); compound 1.0 µM): 72%
residual activity (CLK3 (human); compound 10.0 µM): 34%
residual activity (INSR (human); compound 1.0 µM, ATP 45 µM): 70%
residual activity (INSR (human); compound 1.0 µM, ATP 200 µM): 81%
residual activity (INSR (human); compound 10.0 µM, ATP 45 µM): 26%
residual activity (INSR (human); compound 10.0 µM, ATP 200 µM): 47%
residual activity (LCK (human)): 70% and 89%
residual activity (PDGFRB (human); compound 1.0 µM): 99%
residual activity (PDGFRB (human); compound 10.0 µM): 96%
residual activity (PAK7 (human); compound 1.0 µM): 99%
residual activity (PAK7 (human); compound 10.0 µM): 64%
residual activity (ABL2 (human); compound 1.0 µM): 87%
residual activity (ABL2 (human); compound 10.0 µM): 72%
residual activity (CSF1R (human); compound 1.0 µM): 36%
residual activity (CSF1R (human); compound 10.0 µM): 9%
